Test results published in patent US10317393B2, “Alkynyl sugar analogs for labeling and visualization of glycoconjugates in cells” (Academia Sinica, priority 2007, dated 2019).

Key:
[1] = system: PC-3 cells; assay: Lectin staining of tagged cells, flow cytometry; format: cell-based; conditions: 200 micromolar, three days
Description: FIGS. 9A and 9B show lectin staining of alkynyl-derivatized Fuc 1-tagged PC-3 prostate cancer cells. Cells were treated with 200 micromolar derivatized alkynyl-derivatized Fuc 1, or Fuc 3, or left untreated. After three days, cells were labeled with biotin-conjugated AAL/fluorescein-conjugated streptavidin shown in FIG. 9A or fluorescein-conjugated UEA-I shown in FIG. 9B. Fluorescent signal was detected by flow cytometry. AAL was used to detect α-1,6- or α-1,3-linked Fuc; UEA-I was used to detect α-1,2-linked Fuc. Filled histogram: untreated cells without lectin stain; open histogram c: untreated cells stained with lectin; open histogram b: control Fuc 3-treated cells stained with lectin; open histogram a: alkynyl-derivatized Fuc 1-treated cells stained with lectin. AAL, Aleuria Aurantia Lectin; UEA-1, Ulex Europaeus Agglutinin I.
PC-3 cells were grown in RPMI 1640 (Invitrogen) supplemented with 10% FCS and peracetylated alkynyl Fuc 1 or control Fuc 3 for 3 days at 37° C. Cells were then harvested, washed with 1% FCS/PBS, resuspended (5×10^5 cells) in 100 μl of staining solution (1 μg/ml lectin conjugates in 1% FCS/PBS). Cells were then incubated on ice for 30 min and washed twice with 1% FCS/PBS. […] Data were acquired by FACSCalibur, and were analyzed by CellQuestPro software (BD Biosciences).

[2] = system: Jurkat cells; assay: Cell growth analysis after treatment with sugar analogs (cell numbers counted); format: cell-based, human
Description: FIGS. 1A, 1B, 1C and 1D show analysis of cells labeled with Fuc analogs. […] Jurkat cells were grown in the presence of 200 micromolar each Fuc analog for 3 days before cell numbers were counted. The data represent the percentage of treated cells vs. untreated cells (n=4).
It is also disclosed how treatment with exogenous Fuc analog affects cell growth rate. […] In contrast, the addition of 200 micromolar azido Fuc 2 inhibits cell growth considerably, by 65% when compared with the untreated cells. […] Such toxicity may lead to global change in expression, therefore a nontoxic probe is preferable for accurate probing of glycoconjugate expression.
Jurkat cells were cultivated (2×10^6/10 ml) in RPMI medium 1640 supplemented with 10% FCS and various concentrations of peracetylated alkynyl sugars 1, 2, or 4 or native sugars 3 or 5, for 1-3 days at 37° C. Cells were then harvested, washed with 0.1% FCS/PBS, and resuspended (10^6 cells) in 100 microliters of click reaction solution (0.1 mM biotin probe 6 or fluorogenic probe 7/0.1 mM Tris-thiazoleamine catalyst/0.1 mM CuSO4/0.5 mM sodium ascorbate, in PBS). The reaction was incubated at room temperature for 30 min, and then the cells were washed twice with 0.1% FCS/PBS. Cells treated with biotin probe 6 were subsequently stained with fluorescein-conjugated streptavidin (0.5 microgram per sample in 50 microliters of 1% FCS/PBS) for 30 min at 4° C., and washed three times with 1% FCS/PBS. Data were acquired by BD LSR II with FACSDiva software, and were analyzed by CellQuestPro software (BD Biosciences). Detection of fluorescent adduct with probe 7 was monitored with a 408 nm laser and a 440/40 bandpass filter for excitation and emission, respectively.

For “1,2,3,4-tetraacetyl alkynyl fucose [alkynyl Fuc 1]”, the “binding of Ulex Europaeus Agglutinin I (UEA-1) to treated cells versus control” value [1] was “significantly lower avidity”, the “binding of aleuria aurantia lectin to treated cells versus control” value [1] was “significantly lower avidity” and the “number of cells after 3 days versus cells grown without exogenous Fuc” value ([2]; 200 micromolar, 3 days) was “similar”. For the same substance, the “toxicity to cells (summary statement)” value ([2]; at levels required for efficient labeling) was “much less toxic”.
